# According to patent US8946238B2, “Pyrazolo[1,5-A]pyrimidines as antiviral agents” (Gilead Sciences, Inc., priority 2011, dated 2015):
# System: RSV strain A2
# Test: RSV antiviral cytoprotection assay in Hep2 cells (RSV-induced cytopathic effect, Cell TiterGlo)
# Format: cell-based, Respiratory Syncytial Virus (RSV)
# Details: human respiratory syncytial virus, HEp-2, 0.5 μM compound; RSV A2-infected Hep2 cells; % inhibition calculated from 4-parameter dose response curve, normalized to 0% and 100%; read-out: Percent inhibition at 0.5 μM
# Protocol: Antiviral activity against RSV was determined using an in vitro cytoprotection assay in Hep2 cells. […] The method used was similar to methods previously described in published literature (Chapman et al., Antimicrob Agents Chemother. 2007, 51(9):3346-53.)
# Hep2 cells were obtained from ATCC (Manassas, VI) and maintained in MEM media supplemented with 10% fetal bovine serum and penicillin/streptomycin. Cells were passaged twice a week and kept at subconfluent stage. Commercial stock of RSV strain A2 (Advanced Biotechnologies, Columbia, Md.) was titered before compound testing to determine the appropriate dilution of the virus stock that generated desirable cytopathic effect in Hep2 cells.
# For antiviral tests, Hep2 cells were seeded into 96-well plates 24 hours before the assay at a density of 3,000 cells/well. On a separate 96 well plate, compounds to be tested were serially diluted in cell culture media. Eight concentrations in 3-fold serial dilution increments were prepared for each tested compound and 100 uL/well of each dilution was transferred in duplicate onto plates with seeded Hep2 cells. Subsequently, appropriate dilution of virus stock previously determined by titration was prepared in cell culture media and 100 uL/well was added to test plates containing cells and serially diluted compounds. Each plate included three wells of infected untreated cells and three wells of uninfected cells that served as 0% and 100% virus inhibition control, respectively. Following the infection with RSV, testing plates were incubated for 4 days in a tissue culture incubator. After the incubation, RSV-induced cytopathic effect was determined using a Cell TiterGlo reagent (Promega, Madison, Wis.) followed by a luminescence read-out. The percentage inhibition was calculated for each tested concentration relative to the 0% and 100% inhibition controls and the EC50 value for each compound was determined by non-linear regression as a concentration inhibiting the RSV-induced cytopathic effect by 50%. Ribavirin (purchased from Sigma, St. Louis, Mo.) was used as a positive control for antiviral activity.
# Compounds were also tested for antiviral activity against RSV in Hep2 cells using a 384 well format. Compounds were diluted in DMSO using a 10-step serial dilution in 3-fold increments via automation in 4 adjacent replicates each. Eight compounds were tested per dilution plate. 0.4 uL of diluted compounds were then stamped via Biomek into 384-well plates (Nunc 142761 or 164730 w/lid 264616) containing 20 μL of media (Mediatech Inc. MEM supplemented with Glutamine, 10% FBS and Pen/Strep). DMSO and a suitable positive control compound, such as 80 μM GS-329467 or 10 μM 427346 was used for the 100% and 0% cell killing controls, respectively.
# Hep2 cells (1.0×10^5 cells/ml) were prepared as above in batch to at least 40 mls excess of the number of sample plates (8 mls cell mix per plate) and infected with vendor supplied (ABI) RSV strain A2 to arrive at an MOI of 1:1000 (virus:cell #) or 1:3000 (vol virus: cell vol). Immediately after addition of virus, the RSV infected Hep2 cell suspension was added to each stamped 384-well plate at 20 μl per well using a uFlow dispenser, giving a final volume of 40 μL/well, each with 2000 infected cells. The plates were then incubated for 5 days at 37° C. and 5% CO2. Following incubation, the plates were equilibrated to room temperature in a biosafety cabinet hood for 1.5 hrs and 40 μL of Cell-Titer Glo viability reagent (Promega) was added to each well via uFlow. Following a10-20 minute incubation, the plates were read using an EnVision or Victor Luminescence plate reader (Perkin-Elmer). The data was then uploaded and analyzed on the Bioinformatics portal under the RSV Cell Infectivity and 8-plate EC50-Hep2-384 or 8-plate EC50-Hep2-Envision protocols. […]
row,SMILES,inhibition at 0.5 µM [%]
1,Cc1cn2nc([C@@H]3CCCCN3C(=O)c3cc(Cl)ccc3NS(C)(=O)=O)cc2nc1NCC(C)N (stereo partly drawn) [Compound 1],100
2,Cc1cn2nc([C@@H]3CCCCN3C(=O)c3cc(Cl)ccc3NS(C)(=O)=O)cc2nc1NCC1(N)CC1 [Compound 2],100
3,Cc1cn2nc([C@@H]3CCCCN3C(=O)c3cc(Cl)ccc3NS(C)(=O)=O)cc2nc1NCC(N)c1ccccc1 (stereo partly drawn) [Compound 3],100
4,Cc1cn2nc([C@@H]3CCCCN3C(=O)c3cc(Cl)ccc3NS(C)(=O)=O)cc2nc1N1C[C@@H](N)[C@H](c2ccccc2)C1 [Compound 4],100
5,Cc1cn2nc([C@@H]3CCCCN3C(=O)c3cc(Cl)ccc3NS(C)(=O)=O)cc2nc1NC(C)CN (stereo partly drawn) [Compound 5],100
6,Cc1cn2nc([C@@H]3CCCCN3C(=O)c3cc(Cl)ccc3NS(C)(=O)=O)cc2nc1N[C@H]1C[C@@H](N)C1 [Compound 6],100
7,Cc1cn2nc([C@@H]3CCCCN3C(=O)c3cc(Cl)ccc3NS(C)(=O)=O)cc2nc1N1CCN[C@@H](C)C1 [Compound 7],100
8,Cc1cn2nc([C@@H]3CCCCN3C(=O)c3cc(Cl)ccc3NS(C)(=O)=O)cc2nc1NC(CN)c1ccccc1 (stereo partly drawn) [Compound 8],90
9,COC(=O)[C@H]1C[C@H](N)CN1c1nc2cc([C@@H]3CCCCN3C(=O)c3cc(Cl)ccc3NS(C)(=O)=O)nn2cc1C [Compound 9],99
10,CN[C@@H]1CCN(c2nc3cc([C@@H]4CCCCN4C(=O)c4cc(Cl)ccc4NS(C)(=O)=O)nn3cc2C)C1 [Compound 10],95
11,CN[C@H]1CCN(c2nc3cc([C@@H]4CCCCN4C(=O)c4cc(Cl)ccc4NS(C)(=O)=O)nn3cc2C)C1 [Compound 11],92
12,COC(=O)[C@H]1C[C@@H](N)CN1c1nc2cc([C@@H]3CCCCN3C(=O)c3cc(Cl)ccc3NS(C)(=O)=O)nn2cc1C [Compound 12],89
13,Cc1cn2nc([C@@H]3CCCCN3C(=O)c3cc(Cl)ccc3NS(C)(=O)=O)cc2nc1N1CCN[C@@H](COCc2ccccc2)C1 [Compound 13],82
14,Cc1cn2nc([C@@H]3CCCCN3C(=O)c3cc(Cl)ccc3NS(C)(=O)=O)cc2nc1N1C[C@H](N)C[C@@H]1C(=O)O [Compound 14],81
15,Cc1cn2nc([C@@H]3CCCCN3C(=O)c3cc(Cl)ccc3NS(C)(=O)=O)cc2nc1NCC1CCCNC1 (stereo partly drawn) [Compound 15],82
16,Cc1cn2nc([C@@H]3CCCCN3C(=O)c3cc(Cl)ccc3NS(C)(=O)=O)cc2nc1N1C[C@@H]2CCN[C@@H]2C1 [Compound 16],71
17,Cc1cn2nc([C@@H]3CCCCN3C(=O)c3cc(Cl)ccc3NS(C)(=O)=O)cc2nc1N1CCN[C@H](Cc2ccccc2)C1 [Compound 17],70
18,Cc1cn2nc([C@@H]3CCCCN3C(=O)c3cc(Cl)ccc3NS(C)(=O)=O)cc2nc1N1C[C@@H]2C[C@H]1CN2 [Compound 18],70
19,Cc1cn2nc([C@@H]3CCCCN3C(=O)c3cc(Cl)ccc3NS(C)(=O)=O)cc2nc1N1C[C@@H](N)C[C@@H]1C(=O)O [Compound 19],70
20,Cc1cn2nc([C@@H]3CCCCN3C(=O)c3cc(Cl)ccc3NS(C)(=O)=O)cc2nc1N1CC(C)NC(C)C1 (stereo partly drawn) [Compound 20],63
21,Cc1cn2nc([C@@H]3CCCCN3C(=O)c3cc(Cl)ccc3NS(C)(=O)=O)cc2nc1N[C@H]1C[C@H]2C[C@@H]1CN2 [Compound 21],58
22,Cc1cn2nc([C@@H]3CCCCN3C(=O)c3cc(Cl)ccc3NS(C)(=O)=O)cc2nc1N1CCN[C@@H](C(C)C)C1 [Compound 22],55
23,CNC(=O)[C@H]1CN(c2nc3cc([C@@H]4CCCCN4C(=O)c4cc(Cl)ccc4NS(C)(=O)=O)nn3cc2C)CCN1 [Compound 23],48
24,Cc1cn2nc([C@@H]3CCCCN3C(=O)c3cc(Cl)ccc3NS(C)(=O)=O)cc2nc1N1C[C@H](C)NC[C@H]1C [Compound 24],30
